Experimental data as given in patent US20200072711A1, “FLUORESCENT ENDOPLASMIC RETICULUM TRACKERS FOR LIVE CELL IMAGING OF PATHOGENIC YEAST” (Ramot at Tel Aviv University Ltd., priority 2018, published 2020).
Values after ≈ are worked out from the molar mass of the structure shown. “Also recorded” adds a separate entry of the source.

Tests used:
C. albicans ATCC 24433 = assay: Minimal inhibitory concentration broth double-dilution assay; type: cell-based; details: Candida albicans, ATCC24433, 24 h, 37° C., Casitone
Description: (§1) Minimal inhibitory concentration broth double-dilution assay. All strains were tested using the double-dilution method in 96-well plates (Corning). Yeast strains were grown in Casitone growth medium. Starter cultures were incubated for 24 h (37° C., 5% CO2, aerobic conditions) and then diluted 1:100 into fresh medium. Compounds dissolved in ethanol or in DMSO were added to the casitone broth to form the mother liquor (32 μL stock solution in 1218 μL of casitone) at the starting concentration of 64 μg/mL. Next, 100 μL of serial double dilutions of compounds in Casitone ([…], and 0.007 μg/mL) were prepared in flat-bottomed 96-well microplates (Corning). Control wells with no compounds, and wells without yeast cells containing each tested concentration of the compounds (blanks), were also prepared. An equal volume (100 μL) of yeast suspensions in Casitone broth that was prepared as follows: 900 mL doubly distilled H2O, 9 g Casitone (bacto-casitone), 5 g yeast extract, 11.5 g sodium citrate dihydrate, 20 g glucose. The yeast suspension was added to each well for a final volume of 200 μL. The ethanol or the DMSO concentrations ranged from 0.0012% to 1.3%. The final inoculum was between 5×10^4 colony-forming unit (CFU)/mL and 5×10^5 CFU/mL; identical results were obtained when using 5×10^3 CFU/mL as a final inoculum. After incubation for 24 h at 37° C. in 5% CO2, MTT (3-[4,5-dimethylthiazole-2-yl]-2,5-diphenyltetrazolium bromide; 50 μL of a 1 mg/mL solution in H2O) was added to each well followed by additional incubation at 37° C. for 2 h. Each concentration was tested in triplicate, and results were confirmed by two independent sets of experiments.

C. albicans SN152 [1] = assay: as above; type: cell-based; details: Candida albicans, 24 h, 37° C., Casitone
Description: as §1

C. glabrata ATCC 2001 = assay: as above; type: cell-based, Candida glabrata; details: Nakaseomyces glabratus, ATCC2001, 24 h, 37° C., Casitone
Description: as §1

C. glabrata ATCC 66032 = assay: as above; type: cell-based, Candida glabrata; details: Nakaseomyces glabratus, ATCC66032, 24 h, 37° C., Casitone
Description: as §1

[2] = system: tested panel of Candida strains; assay: Live cell imaging, ER labeling; type: cell-based; details: panel of Candida strains (C. albicans and C. glabrata)
Description: (§2) Growth conditions for live cell imaging. Cells were grown to log phase in liquid YPD overnight at 30° C. in a 10 ml tube. Cells were diluted 1:10 and then incubated for 2 h at 30° C. to log phase.
(§3) Cell staining. The fluorescent probes were added to a final concentration of 10 μM for probes 1-6 to cells from a log phase culture grown in YPD broth media at 30° C. Cells were then incubated in the dark for a total of 60 min. Before imaging, cells were washed once with PBS buffer. For ER-tracker dyes, DiOC6 (1 μg/mL) and BODIPY™ TR Glibenclamide (1 μM), staining cells were incubated in a prepared Hanks' Balanced Salt Solution at 37° C. for 5 min and 30 min, respectively. For ER-tracker Blue-White DPX (1 μM), staining cells were incubated in YPD for 30 min at 30° C. For mitochondrial staining the previously reported Cy5-based mitochondrial dye was used (1 μg/mL). For staining, cells were incubated in YPD in the presence of dye for 5 min at 30° C. Cells were then washed with PBS buffer once.
Live cell imaging. Candida cells were resuspended in PBS buffer and 2 μL were placed on a glass slides and covered with glass coverslips. C. glabrata (ATCC 2001) cells treated with probes 1-6, all tested Candida cells treated with ER-tracker Blue-White DPX and inter-organelle interaction study were imaged on a MORE imaging system (TILL Photonics GmbH) with an Olympus UPlanApo 100X 1.3 NA oil immersion objective. The bandpass filter sets used to image probes 1-3 were excitation 427/10 nm and emission 510/20 nm. The bandpass filter sets used to image probes 4-6 were excitation 485/20 nm and emission 525/30 nm. The bandpass filter sets used to image ER-tracker Blue-White DPX were excitation 390/40 nm and emission 525/30 nm. The bandpass filter sets used to image Cy5-based mitochondrial dye were excitation 560/25 nm and emission 684/24 nm. C. albicans cells (ATCC 24433 and SN152) and C. glabrata (ATCC 66032) treated with probes 1-6 were imaged on a Nikon Ti microscope equipped with a Plan Apo VC 100X oil objective and a Zyla 5.5 sCMOS camera (Andor) run by NIS elements Ar software. The bandpass filter sets used to image probes 1-3, and DiOC6-stained cells were excitation 440 nm and emission 480/40 nm. The bandpass filter sets used to image cells treated with probes 4-6, excitation 470 nm and emission 525/50 nm were used. For Eno1-mCherry, excitation 585 nm and emission 630/75 nm were used. To optimize the probes, the effects of the concentration (1, 5 and 10 μM), incubation time (5, 30, 60 and 120 min) and media (YPD and HBSS) were investigated. Images were processed using ImageJ program. The smoothed imaged were generated using the convolve filter (Normalize Kernel).

[3] = commercial ER-trackers; cited from earlier work
C. albicans SN152 [4] = assay: Live cell imaging, ER labeling; type: cell-based, Candida albicans
Description: as §2, §3
(§4) Live cell imaging. Candida cells were resuspended in PBS buffer and 2 μL were placed on a glass slides and covered with glass coverslips. […]

[5] = Absorption and emission spectra of fluorescent probes; type: physicochemical; details: 10 μM in PBS, pH=7.4; for emission maxima: excitation at 420 nm
Description: FIGS. 4A-4F show absorption and emission spectra of probes 1-6 (10 μM in PBS, pH=7.4), respectively. Emission spectrum was measured after excitation at 420 nm.
General chemistry methods and instrumentation. ^1H-NMR spectra (including 1D-TOCSY) were recorded on BrukerAvance™ 400 or 500 MHz spectrometers, and chemical shifts (reported in ppm) were calibrated to CDCl3 (d=7.26) when CDCl3 was the solvent, or to CD3OD (d=3.31) when CD3OD was the solvent. ^13C-NMR spectra were recorded on BrukerAvance™ 400 or 500 MHz spectrometers at 100 or 125 MHz. ^19F-NMR spectra were recorded on BrukerAvance™ 400 or 500 MHz spectrometers at 375 or 470 MHz. Multiplicities are reported using the following abbreviations: b=broad, s=singlet, d=doublet, t=triplet, q=quartet. Coupling constants (J) are given in Hertz. HRESI mass spectra were measured on a Waters Synapt instrument. Chemical reactions were monitored by TLC (Merck, Silica gel 60 F254). Visualization was achieved using a cerium molybdate stain (5 g (NH4)2Ce(NO3)6, 120 g (NH4)6Mo7O24·4H2O, 80 mL H2SO4, 720 mL H2O) or with UV lamp. Unless otherwise stated, all chemicals were obtained from commercial sources. Compounds were purified using Geduran® Si 60 chromatography (Merck). The SpectraMax i3x Platform spectrophotometer from Molecular Devices was used for the measurement of the excitation and absorbance spectra of the fluorescent probes.
We first measured the absorption and emission spectra of fluorescent probes 1-6. […] This 70-nm redshift effect is attributed to the effect of the halogen atoms in the phenyl ring segment of these molecules: a difluorophenyl ring in probe 2 and a dichlorophenyl in probe 3.

[6] = system: all tested Candida strains; assay: MIC assay, over the panel; type: cell-based
Description: as §1, with “The final inoculum was between 5×10^4 colony-forming unit (CFU)/mL and 5×10^5 CFU/mL; identical results were obtained when using 5×10^3 CFU/mL as a final inoculum. After incubation for 24 h at 37° C. in 5% CO2, MTT (3-[4,5-dimethylthiazole-2-yl]-2,5-diphenyltetrazolium bromide; 50 μL of a 1 mg/mL solution in H2O) was added to each well followed by additional incubation at 37° C. for 2 h. Each concentration was tested in triplicate, and results were confirmed by two independent sets of experiments.” left out
The ER-labeling properties were evaluated by incubating the compounds with representative strains of C. albicans and C. glabrata. […]

C. glabrata strains = assay: Live cell imaging, ER labeling; type: cell-based, Candida glabrata; details: C. glabrata yeast cells
Description: as §2, §3, §4

C. albicans cells = assay: Live cell imaging, ER labeling; type: cell-based, Candida albicans
Description: as §2, §3, §4

| SMILES | MIC (C. albicans ATCC 24433) | MIC (C. albicans SN152 [1]) | MIC (C. glabrata ATCC 2001) | MIC (C. glabrata ATCC 66032) | staining pattern [2] | further results |
| --- | --- | --- | --- | --- | --- | --- |
| OC(Cn1cncn1)(Cn1cncn1)c1ccc(F)cc1F [FLC, fluconazole, reference compound] | 0.5 µg/mL (≈ 1.63 µM) | 0.5 µg/mL (≈ 1.63 µM) | 64 µg/mL (≈ 209 µM) | 64 µg/mL (≈ 209 µM) |  |  |
| CCOC(=O)c1cc2ccc(N(CC)CC)cc2oc1=O [ethyl ester of 7-(diethyl)-aminocoumarin, 7-(diethyl)-aminocoumarin ethyl ester] |  |  |  |  | did not stain the yeast cell interior of any of the tested Candida strains |  |
| CCCCCCN1C(=CC=Cc2oc3ccccc3[n+]2CCCCCC)Oc2ccccc21.[I-] [DiOC6, 3,3′-dihexyloxacarbocyanine iodide] |  |  |  |  | more significant in C. albicans than in C. glabrata yeast cells; also recorded: non-specific labeling of additional intracellular compartments, such as lipid droplets, was observed | emission (em) [3]: 500 nm; excitation (ex) [3]: 480 nm; staining pattern (C. albicans SN152 [4]): non-specific staining of other cellular compartments such as lipid droplets was also observed |
| CCN(CC)c1ccc2cc(C(=O)NCC(O)(Cn3ccnn3)c3ccc(F)cc3F)c(=O)oc2c1 (stereo not drawn) [Probe 2] | > 64 µg/mL | > 64 µg/mL | > 64 µg/mL | > 64 µg/mL | the distinct nuclear envelope and cortical structure of the ER were clearly observed | absorption spectrum maxima [5]: 430 nm; emission maxima [5]: 480 nm; MIC [6]: ≥ 64 µg/mL |
| CCN(CC)c1ccc2cc(C(=O)NCC(O)(Cn3ccnn3)c3ccc(Cl)cc3Cl)c(=O)oc2c1 (stereo not drawn) [Probe 3] | > 64 µg/mL | > 64 µg/mL | > 64 µg/mL | > 64 µg/mL | the distinct nuclear envelope and cortical structure of the ER were clearly observed | absorption spectrum maxima [5]: 430 nm; emission maxima [5]: 550 nm; MIC [6]: ≥ 64 µg/mL |
| COC(=O)CCC1=[N+]2C(=Cc3c(C)cc(C)n3[B-]2(F)F)C=C1 [BODIPY-methyl ester] |  |  |  |  | the entire cytoplasm was labeled in a non-specific pattern |  |
| CCC(C)n1ncn(-c2ccc(N3CCN(c4ccc(OCC5COC(Cn6cncn6)(c6ccc(Cl)cc6Cl)O5)cc4)CC3)cc2)c1=O (stereo not drawn) [ITR, itraconazole, reference compound] | 0.015 µg/mL (≈ 0.0213 µM) | 0.007 µg/mL (≈ 0.00992 µM) | 4 µg/mL (≈ 5.67 µM) | 0.5 µg/mL (≈ 0.709 µM) |  |  |
| CCN(CC)c1ccc2cc(C(=O)NCC(O)(Cn3cncn3)c3ccc(F)cc3F)c(=O)oc2c1 (stereo not drawn) [Probe 1] | 0.03 µg/mL (≈ 0.0603 µM) | 0.007 µg/mL (≈ 0.0141 µM) | 16 µg/mL (≈ 32.2 µM) | 8 µg/mL (≈ 16.1 µM) |  |  |
| CN(C)c1ccc(-c2cnc(-c3ccc(S(=O)(=O)NCCNC(=O)c4c(F)c(F)c(F)c(F)c4F)cc3)o2)cc1 [Blue-White DPX] |  |  |  |  | stained Candida glabrata cells only; also recorded: non-specific labeling of additional intracellular compartments, such as lipid droplets, was observed | emission (em) [3]: 430-640 nm; excitation (ex) [3]: 374 nm; staining pattern (C. glabrata strains): label the ER; also recorded: a circular pattern around the nuclear envelope with peripheral cortical extensions reminiscent of the ER structure was clearly visible; staining pattern (C. albicans cells): non-specific staining of the cytoplasm |
